The values that follow come from patent US20230382889A1 (Volastra Therapeutics, Inc., priority 2022, published 2023).

Chain of hKIF18A (1-374) (Q8NI77 1-374): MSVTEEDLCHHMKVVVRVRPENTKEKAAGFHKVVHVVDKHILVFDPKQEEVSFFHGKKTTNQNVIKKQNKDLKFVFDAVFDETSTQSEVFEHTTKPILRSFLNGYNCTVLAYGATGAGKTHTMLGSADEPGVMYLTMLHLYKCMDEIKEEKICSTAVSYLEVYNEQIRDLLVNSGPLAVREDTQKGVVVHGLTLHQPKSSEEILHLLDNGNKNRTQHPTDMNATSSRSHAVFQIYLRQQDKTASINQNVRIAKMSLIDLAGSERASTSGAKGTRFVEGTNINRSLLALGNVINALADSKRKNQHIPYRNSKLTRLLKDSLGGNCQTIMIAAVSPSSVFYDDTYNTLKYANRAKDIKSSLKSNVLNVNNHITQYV

The target in this assay is hKIF18A (1-374) (Homo sapiens (Human), UniProt Q8NI77). The assay is described as follows: Inhibition of KIF18A microtubule-dependent ATPase activity (ADP-Glo). As to conditions: 4 nM hKIF18A (1-374). The format is biochemical. The procedure:
Test compounds were plated in a 3× dilution scheme in a 384-well plate. Assay buffer: 80 mM PIPES (pH 6.9), 1 mM MgCl2, 75 mM KCl, 1 mM EGTA, 1 mM DTT, 0.01% BSA, 0.005% Tween-20, 1 μM Taxol in H2O. […] After incubation at room temperature for 30 min, 2.5 μL of microtubule mix was added [0.2 mg/mL pre-formed microtubules, 2.0 mM ATP in assay buffer], the plate was centrifuged for 30 s and then incubated at 28° C. for 60 min. 5 μL of Promega® ADP-Glo Max R1 was added, the plate was centrifuged for 30 s, and the mixture incubated for 4 h at room temperature. 10 μL of Promega® ADP-Glo Max R2 was added, the plate centrifuged for 30 s, and incubated for 60 min at room temperature. Luminescence was measured with an Envision plate reader, and % Inhibition was calculated for each well as: ([max−min]−[test−min])/[max−min]. IC50 values were calculated from concentration vs. % Inhibition data via a four-parameter variable slope model.
In general terms: ADP-Glo first removes unused ATP, then detects ADP through luciferase.
As a reminder, the IC50 is the concentration that inhibits the measured activity by half. In turn, `O=S(=O)(CCO)Nc1ccc(-n2cc(-c3ccc(C(O)C4CCCC4)o3)nn2)c(N2CCC3(CC2)CC3)c1` (single isomer, unassigned) [Compound 51a] registered a half-maximal inhibitory concentration (IC50) of 2.4 nM. That is a single-digit nanomolar value.

`O=S(=O)(CCO)Nc1ccc(-n2cc(-c3ccc(C(O)C4CCCC4)o3)nn2)c(N2CCC3(CC2)CC3)c1` (single isomer, unassigned) [Compound 51b] displayed an IC50 of 3.1 nM.

`CS(=O)(=O)Nc1ccc(-c2nnc(-c3cccc4c3OCCC4)[nH]2)c(N2CCC3(CC2)CC3)c1` [Compound 3, N-(4-(5-(chroman-8-yl)-4H-1,2,4-triazol-3-yl)-3-(6-azaspiro[2.5]octan-6-yl)phenyl)methanesulfonamide] came in with an IC50 of 280 nM.

As for `c1cc(-c2nnc(-c3cccnc3N3CCC4(CC3)CC4)[nH]2)nc(N2CCOCC2)c1` [Compound 4, 4-(6-(5-(2-(6-azaspiro[2.5]octan-6-yl)pyridin-3-yl)-4H-1,2,4-triazol-3-yl)pyridin-2-yl)morpholine], the IC50 is 5600 nM.

Turning to `Cc1cc(-c2nnc(-c3ccc(NS(C)(=O)=O)cc3N3CCC4(CC3)CC4)[nH]2)nc(N2CCOCC2)n1` [Compound 6, N-(4-(5-(6-methyl-2-morpholinopyrimidin-4-yl)-4H-1,2,4-triazol-3-yl)-3-(6-azaspiro[2.5]octan-6-yl)phenyl)methanesulfonamide], the IC50 is 25 nM.

Consider `CCOC(=O)CS(=O)(=O)Nc1ccc(-c2nnc(-c3cccc(N4CCC(F)(F)CC4)n3)[nH]2)c(N2CCC3(CC2)CC3)c1` [Compound 7, ethyl 2-(N-(4-(5-(6-(4,4-difluoropiperidin-1-yl)pyridin-2-yl)-4H-1,2,4-triazol-3-yl)-3-(6-azaspiro[2.5]octan-6-yl)phenyl)sulfamoyl)acetate], for which half-maximal inhibition (IC50) required 83 nM.

The compound `O=S(=O)(CCO)Nc1ccc(-c2nnc(-c3cccc(N4CCC(F)(F)CC4)n3)[nH]2)c(N2CCC3(CC2)CC3)c1` [Compound 8, N-(4-(5-(6-(4,4-difluoropiperidin-1-yl)pyridin-2-yl)-4H-1,2,4-triazol-3-yl)-3-(6-azaspiro[2.5]octan-6-yl)phenyl)-2-hydroxyethane-1-sulfonamide] had an IC50 of 5.1 nM.

`CC(C)(C)NS(=O)(=O)c1cccc(-c2cn(-c3ccc(NS(C)(=O)=O)cc3N3CCC4(CC3)CC4)nn2)c1` [Compound 12, N-(tert-butyl)-3-(1-(4-(methylsulfonamido)-2-(6-azaspiro[2.5]octan-6-yl)phenyl)-1H-1,2,3-triazol-4-yl)benzenesulfonamide] displayed an IC50 of 9.1 nM.

As to `Cc1cc(-c2cn(-c3ccc(NS(C)(=O)=O)cc3N3CCC4(CC3)CC4)nn2)nc(N2CCC(F)(F)CC2)c1` [Compound 14, N-(4-(4-(6-(4,4-difluoropiperidin-1-yl)-4-methylpyridin-2-yl)-1H-1,2,3-triazol-1-yl)-3-(6-azaspiro[2.5]octan-6-yl)phenyl)methanesulfonamide], the IC50 was 39 nM.

`CS(=O)(=O)Nc1ccc(-n2cc(-c3cccc(N4CCC(F)(F)CC4)n3)nn2)c(N2CCCC2)c1` [Compound 16, N-(4-(4-(6-(4,4-difluoropiperidin-1-yl)pyridin-2-yl)-1H-1,2,3-triazol-1-yl)-3-(pyrrolidin-1-yl)phenyl)methanesulfonamide] gave an IC50 of 1100 nM. This IC50 is about 28-fold higher than that of the compound before.

Compound `CS(=O)(=O)Nc1ccc(-n2cc(-c3cccc(N4CCC(F)(F)CC4)n3)cn2)c(N2CCC3(CC2)CC3)c1` [Compound 17, N-(4-(4-(6-(4,4-difluoropiperidin-1-yl)pyridin-2-yl)-1H-pyrazol-1-yl)-3-(6-azaspiro[2.5]octan-6-yl)phenyl)methanesulfonamide] returned an IC50 of 29 nM. This IC50 is about 38-fold lower than that of the compound before.

`CC1CCN(c2cc(NS(C)(=O)=O)ccc2-n2cc(-c3cccc(N4CCC(F)(F)CC4)n3)nn2)CC1` [Compound 18, N-(4-(4-(6-(4,4-difluoropiperidin-1-yl)pyridin-2-yl)-1H-1,2,3-triazol-1-yl)-3-(4-methylpiperidin-1-yl)phenyl)methanesulfonamide] had an IC50 of 8.7 nM. Compared with the last compound, the IC50 is about 3.3-fold lower.

For `CS(=O)(=O)Nc1ccc(-n2cc(-c3cccc(N4CCC(F)(F)CC4)n3)nn2)c(N2CCC(C(F)F)CC2)c1` [Compound 19, N-(3-(4-(difluoromethyl)piperidin-1-yl)-4-(4-(6-(4,4-difluoropiperidin-1-yl)pyridin-2-yl)-1H-1,2,3-triazol-1-yl)phenyl)methanesulfonamide], half-maximal inhibition (IC50) was put at 14 nM.

Compound `CS(=O)(=O)Nc1ccc(-n2cc(-c3cccc(N4CCC(F)(F)CC4)n3)nn2)c(N2CCC(C(F)(F)F)CC2)c1` [Compound 20, N-(4-(4-(6-(4,4-difluoropiperidin-1-yl)pyridin-2-yl)-1H-1,2,3-triazol-1-yl)-3-(4-(trifluoromethyl)piperidin-1-yl)phenyl)methanesulfonamide] returned a 50% inhibitory concentration (IC50) of 23 nM.

The compound `Cc1cc(-c2cn(-c3ccc(NS(C)(=O)=O)cc3N3CCC4(CC3)CC4)nn2)nc(N2CCC(F)(F)CC2)n1` [Compound 21, N-(4-(4-(2-(4,4-difluoropiperidin-1-yl)-6-methylpyrimidin-4-yl)-1H-1,2,3-triazol-1-yl)-3-(6-azaspiro[2.5]octan-6-yl)phenyl)methanesulfonamide] had an IC50 of 32 nM. This IC50 and that of the compound before are within 1.5-fold of each other.

In turn, `CS(=O)(=O)Nc1ccc(-n2cc(-c3cccc(C(O)C4CCCC4)n3)nn2)c(N2CCC3(CC2)CC3)c1` (stereo not drawn) [Compound 22, N-(4-(4-(6-(cyclopentyl(hydroxy)methyl)pyridin-2-yl)-1H-1,2,3-triazol-1-yl)-3-(6-azaspiro[2.5]octan-6-yl)phenyl)methanesulfonamide] showed an IC50 of 11 nM.

In turn, `CS(=O)(=O)Nc1ccc(-n2cc(-c3cccc(CN4CCC(F)(F)CC4)n3)nn2)c(N2CCC3(CC2)CC3)c1` [Compound 23, N-(4-(4-(6-((4,4-difluoropiperidin-1-yl)methyl)pyridin-2-yl)-1H-1,2,3-triazol-1-yl)-3-(6-azaspiro[2.5]octan-6-yl)phenyl)methanesulfonamide] showed an IC50 of 11 nM.

`CS(=O)(=O)Nc1ccc(-n2cc(-c3ccc(C(O)C4CCCC4)o3)nn2)c(N2CCC3(CC2)CC3)c1` (stereo not drawn) [Compound 25, N-(4-(4-(5-(cyclopentyl(hydroxy)methyl)furan-2-yl)-1H-1,2,3-triazol-1-yl)-3-(6-azaspiro[2.5]octan-6-yl)phenyl)methanesulfonamide] showed an IC50 of 4.7 nM.

On to `Cc1cc(-c2cnc(-c3ccc(NS(C)(=O)=O)cc3N3CCC4(CC3)CC4)[nH]2)nc(N2CCC(F)(F)CC2)n1` [Compound 26, N-(4-(5-(2-(4,4-difluoropiperidin-1-yl)-6-methylpyrimidin-4-yl)-1H-imidazol-2-yl)-3-(6-azaspiro[2.5]octan-6-yl)phenyl)methanesulfonamide], for which the concentration for half-maximal inhibition (IC50) is 44 nM.

On to `CS(=O)(=O)Nc1ccc(-c2cnc(-c3cccc(N4CCOCC4)n3)[nH]2)c(N2CCC3(CC2)CC3)c1` [Compound 27, N-(4-(2-(6-morpholinopyridin-2-yl)-1H-imidazol-5-yl)-3-(6-azaspiro[2.5]octan-6-yl)phenyl)methanesulfonamide], for which the IC50 is > 3000 nM.

`Cc1cc(-c2cnc(-c3ccc(NS(C)(=O)=O)cc3N3CCC4(CC3)CC4)[nH]2)nc(N2CCC(F)(F)CC2)c1` [Compound 28, N-(4-(5-(6-(4,4-difluoropiperidin-1-yl)-4-methylpyridin-2-yl)-1H-imidazol-2-yl)-3-(6-azaspiro[2.5]octan-6-yl)phenyl)methanesulfonamide] registered a concentration for half-maximal inhibition (IC50) of 45 nM.

In turn, `CS(=O)(=O)Nc1ccc(-c2ncc(-c3cccc(N4CC5C(C4)C5(F)F)n3)[nH]2)c(N2CCC3(CC2)CC3)c1` (stereo not drawn) [Compound 30, N-(4-(5-(6-(6,6-difluoro-3-azabicyclo[3.1.0]hexan-3-yl)pyridin-2-yl)-1H-imidazol-2-yl)-3-(6-azaspiro[2.5]octan-6-yl)phenyl)methanesulfonamide] came in with an IC50 of 21 nM.

Turning to `CS(=O)(=O)Nc1ccc(-c2ncc(-c3cccc(NC4CC(F)(F)C4)n3)[nH]2)c(N2CCC3(CC2)CC3)c1` [Compound 32, N-(4-(5-(6-((3,3-difluorocyclobutyl)amino)pyridin-2-yl)-1H-imidazol-2-yl)-3-(6-azaspiro[2.5]octan-6-yl)phenyl)methanesulfonamide], the IC50 is 140 nM.

Consider `CS(=O)(=O)Nc1ccc(-c2ncc(-c3cccc(N4CC(F)(F)C4)n3)[nH]2)c(N2CCC3(CC2)CC3)c1` [Compound 33, N-(4-(5-(6-(3,3-difluoroazetidin-1-yl)pyridin-2-yl)-1H-imidazol-2-yl)-3-(6-azaspiro[2.5]octan-6-yl)phenyl)methanesulfonamide], for which the IC50 stood at 36 nM.

Take `CC(C)(C)NS(=O)(=O)c1cccc(-c2cnc(-c3ccc(NS(C)(=O)=O)cc3N3CCC4(CC3)CC4)[nH]2)c1` [Compound 34, N-(tert-butyl)-3-(2-(4-(methylsulfonamido)-2-(6-azaspiro[2.5]octan-6-yl)phenyl)-1H-imidazol-5-yl)benzenesulfonamide]: inhibition was half-maximal at 74 nM (IC50).

For `O=S(=O)(CCO)Nc1ccc(-c2ncc(-c3cccc(N4CCC(F)(F)CC4)n3)[nH]2)c(N2CCC3(CC2)CC3)c1` [Compound 35, N-(4-(5-(6-(4,4-difluoropiperidin-1-yl)pyridin-2-yl)-1H-imidazol-2-yl)-3-(6-azaspiro[2.5]octan-6-yl)phenyl)-2-hydroxyethane-1-sulfonamide], half-maximal inhibition (IC50) required 27 nM.

As to `CS(=O)(=O)Nc1ccc(-n2cc(-c3ccn(C4CCC(F)(F)CC4)n3)nn2)c(N2CCC3(CC2)CC3)c1` [Compound 41, N-(4-(4-(1-(4,4-difluorocyclohexyl)-1H-pyrazol-3-yl)-1H-1,2,3-triazol-1-yl)-3-(6-azaspiro[2.5]octan-6-yl)phenyl)methanesulfonamide], the midpoint of inhibition, the IC50, lay at 16 nM.
